Experimental data reported in patent US7507739B2, “6-[(substituted)phenyl]triazolopyrimidines as anticancer agents” (Wyeth, priority 2003, dated 2009).
Marks after values point to notes of the source that are not given here.

Assays:
[1] = tested on: HCT-15 Human Colon Carcinoma; test: Human tumor xenograft test, HCT-15; assay type: in vivo, athymic mice; settings: for T/C on day 0 / T/C on day 7 / T/C on day 13 / T/C on day 20: days 1, 8, 15
Description: (§1) The ability of compounds of this invention to inhibit tumor growth in animals is studied in the athymic mouse xenograft standard pharmacological test. Female nu/nu mice in an outbred albino background are obtained from Charles River Laboratories (Wilmington, Mass.). Animals are injected subcutaneously on the flank with the desired tumor cell suspension. Several days later, mice with tumors of approximately 150 mm^3 are selected from those injected (staged) and randomly distributed into groups of 5-10. The day of staging is called day 0. Compounds of the invention, usually formulated in saline (exceptions are noted in tables), are administered to animals by intravenous injection or oral gavage on various schedules starting on day 0 or 1, as noted in the tables. The control group in each experiment is dosed with vehicle on the same schedule. Tumor size is measured every 3-7 days with calipers in two orthogonal dimensions, and tumor volume is calculated from the formula volume=[(length×width^2)/2].
(§2) Tumor/Control (T/C) is obtained by dividing the mean tumor volume of the treated group by the mean tumor volume of the control group on each measurement day. A treatment dose is defined as active if it produced a statistically significant T/C of 0.50 or less. A p value≦0.05, determined by one-side Student's t-test, is required for statistical significance. A treatment dose is defined as toxic if more than 10% of the animals died from a compound-related toxicity.

[2] = tested on: H157 Human Non-Small Cell Lung Carcinoma; test: Human tumor xenograft test, H157; assay type: in vivo, athymic mice; settings: for T/C on day 0 / T/C on day 7 / T/C on day 11 / T/C on day 14: days 0, 6
Description: as §1, §2

CNCCCOc1cc(F)c(-c2c(Cl)nc3ncnn3c2N[C@@H](C)C(F)(F)F)c(F)c1.Cl [Example 2a, 5-Chloro-6-{2,6-difluoro-4-[3-(methylamino)propoxy]phenyl}-N-[(1S)-2,2,2-trifluoro-1-methylethyl][1,2,4]triazolo[1,5-a]pyrimidin-7-amine hydrogen chloride]
T/C on day 0 ([1]; HCT-15, 10 mg/kg IV): 1.00 | T/C on day 7 ([1]; HCT-15, 10 mg/kg IV): 0.81 | T/C on day 13 ([1]; HCT-15, 10 mg/kg IV): 1.03 | T/C on day 20 ([1]; HCT-15, 10 mg/kg IV): 0.75 | T/C on day 0 ([1]; HCT-15, 20 mg/kg IV): 1.00 | T/C on day 7 ([1]; HCT-15, 20 mg/kg IV): 0.86 | T/C on day 13 ([1]; HCT-15, 20 mg/kg IV): 0.50* | T/C on day 20 ([1]; HCT-15, 20 mg/kg IV): 0.43* | tumor growth inhibition (activity call) ([1]; HCT-15, 20 mg/kg intravenously on days 1, 8, and 15): active | T/C on day 0 ([1]; HCT-15, 25 mg/kg IV): 1.00 | T/C on day 7 ([1]; HCT-15, 25 mg/kg IV): 0.78 | T/C on day 13 ([1]; HCT-15, 25 mg/kg IV): 0.60 | T/C on day 20 ([1]; HCT-15, 25 mg/kg IV): 0.44 | T/C on day 0 ([2]; H157, 7.5 mg/kg IV): 1.04 | T/C on day 7 ([2]; H157, 7.5 mg/kg IV): 0.54** | T/C on day 11 ([2]; H157, 7.5 mg/kg IV): 0.42** | T/C on day 14 ([2]; H157, 7.5 mg/kg IV): 0.45** | T/C on day 0 ([2]; H157, 15 mg/kg IV): 1.02 | T/C on day 7 ([2]; H157, 15 mg/kg IV): 0.55* | T/C on day 11 ([2]; H157, 15 mg/kg IV): 0.44* | T/C on day 14 ([2]; H157, 15 mg/kg IV): 0.42** | T/C on day 0 ([2]; H157, 25 mg/kg IV): 1.03 | T/C on day 7 ([2]; H157, 25 mg/kg IV): 0.62* | T/C on day 11 ([2]; H157, 25 mg/kg IV): 0.29** | T/C on day 14 ([2]; H157, 25 mg/kg IV): 0.30** | tumor growth inhibition (activity call) ([2]; H157 NSCLC, 25, 15 and 7.5 mg/kg intravenously on days 0 and 6): inhibited tumor growth
